Target: Carbonic anhydrase 2 (Homo sapiens, UniProt P00918)
Description: Dissociation constant against human Carbonic anhydrase II (HCA II)

Structure (SMILES) | Kd
NS(=O)(=O)c1ccc(C(=O)N[C@H](C(=O)NCC(=O)NCC(=O)OCc2ccccc2)c2ccccc2)cc1 | 0.9 nM
NS(=O)(=O)c1ccc(C(=O)N[C@@H](Cc2ccccc2)C(=O)NCC(=O)NCC(=O)OCc2ccccc2)cc1 | 5.3 nM
NS(=O)(=O)c1ccc(C(=O)NCc2ccccn2)cc1 | 4.3 nM
CNC(=O)c1ccc(S(N)(=O)=O)cc1 | 150 nM
NS(=O)(=O)c1ccc(C(=O)NCc2cccc3ccccc23)cc1 | 0.6 nM
NS(=O)(=O)c1ccc(C(=O)NCc2ccncc2)cc1 | 1.4 nM
NS(=O)(=O)c1ccc(C(=O)NCC(F)(F)C(F)(F)C(F)(F)C(F)(F)C(F)(F)C(F)(F)C(F)(F)F)cc1 | 0.3 nM
NS(=O)(=O)c1ccc(C(=O)NCC(=O)NCC(=O)OCc2ccccc2)cc1 | 71 nM
Cc1ccccc1CNC(=O)c1ccc(S(N)(=O)=O)cc1 | 2.2 nM
NS(=O)(=O)c1ccc(C(=O)NCc2ccc([N+](=O)[O-])cc2)cc1 | 2 nM
CCCCCCCCNC(=O)c1ccc(S(N)(=O)=O)cc1 | 2.5 nM
NC(=O)c1ccc(S(N)(=O)=O)cc1 | 120 nM
NS(=O)(=O)c1ccc(C(=O)N[C@@H](Cc2ccccc2)C(=O)NCC(=O)NCC(=O)O)cc1 | 21 nM
NS(=O)(=O)c1ccc(C(=O)NCSc2ccccc2)cc1 | 1.7 nM
NS(=O)(=O)c1ccc(C(=O)N[C@H](Cc2ccccc2)C(=O)NCC(=O)NCC(=O)OCc2ccccc2)cc1 | 36 nM
CN(C)c1ccc(CNC(=O)c2ccc(S(N)(=O)=O)cc2)cc1 | 1.4 nM
NS(=O)(=O)c1ccc(C(=O)NCc2ccc(F)c(F)c2F)cc1 | 2.3 nM
NS(=O)(=O)c1ccc(C(=O)NC(=O)c2ccco2)cc1 | 5.6 nM
NS(=O)(=O)c1ccc(C(=O)NCC(=O)NCC(=O)NCC(=O)OCc2ccccc2)cc1 | 75 nM
CCCCc1ccc(COC(=O)CNC(=O)CNC(=O)CNC(=O)c2ccc(S(N)(=O)=O)cc2)cc1 | 53 nM
NS(=O)(=O)c1ccc(C(=O)NCC2CCCCC2)cc1 | 1.1 nM
NS(=O)(=O)c1ccc(C(=O)NCC(=O)NCC(=O)NCC(=O)NCC(=O)OCc2ccccc2)cc1 | 210 nM
NS(=O)(=O)c1ccc(C(=O)NCC23CC4CC(CC(C4)C2)C3)cc1 | 2.1 nM
NS(=O)(=O)c1ccc(C(=O)NCc2cccnc2)cc1 | 4 nM
